Data set [1] deals with mouse. The settings on record: Carcinogenicity; b6c3f1; Oral; Feed; dose end: 24 month; group: systemic; systemic / in life observation / body weight / body weight gain.
Data set [2] has as its system mouse. Particulars: Carcinogenicity, b6c3f1, Oral, Feed, dose end: 78 week, group: systemic.
The test system of data set [3] is rat. The settings on record: Carcinogenicity, other, Oral, Feed, dose end: 78 week, group: systemic.
The subject of data set [4] is dog. Particulars: Chronic toxicity, beagle, Oral, Capsule, dose end: 52 week.
Data set [5] relates to rat. The settings on record: Multigenerational reproductive toxicity study, sprague dawley, Oral, Feed, dose end: 2 generation.
The subject of data set [6] is mouse. The settings on record: Carcinogenicity, cd1, Oral, Feed, dose end: 2 year, group: systemic.
Data set [7] deals with rat. The settings on record: Combined chronic toxicity/carcinogenicity, sprague dawley, Oral, Feed, dose end: 24 month.
The subject of data set [8] is dog. Particulars: Chronic toxicity, beagle, Oral, Feed, dose end: 52 week, group: systemic.
The test system of data set [9] is mouse. Particulars: Subchronic oral toxicity in rodents, cd1, Feed, dose end: 98 day, group: systemic, systemic / organ weight / liver / absolute + systemic / organ weight / liver / relative to body weight + systemic / pathology microscopic / ….
The subject of a further data set is rabbit. The settings on record: Prenatal developmental toxicity study, new zealand white, Oral, Gavage/Intubation, dose end: 18 GD.
Data set [10] has as its system rat. The settings on record: Combined chronic toxicity/carcinogenicity, wistar, Oral, Feed, dose end: 24 month, group: systemic.
The subject of data set [11] is mouse. The settings on record: Carcinogenicity, other, Oral, Feed, dose end: 24 month, group: systemic.
Data set [12] concerns rat. The settings on record: Subchronic oral toxicity in rodents, wistar, Feed, dose end: 98 day, group: systemic.
In data set [13] the test system is rat. The settings on record: Prenatal developmental toxicity study, sprague dawley, Oral, Gavage/Intubation, dose end: 15 GD.
The mark [14] stands for this setting: systemic / in life observation / body weight / body weight.
Setting [15] is: systemic / in life observation / body weight / body weight + systemic / pathology microscopic / liver / carcinoma + systemic / in life ….
Where [16] appears, read: systemic / in life observation / body weight / body weight + systemic / pathology microscopic / testes / atrophy.
Where [17] appears, read: systemic / pathology microscopic / adrenal gland / adenoma + systemic / in life observation / body weight / body weight + systemic / in life….
[18] abbreviates: group: cholinesterase, cholinesterase / cholinesterase / cholinesterase / brain cholinesterase (che) + cholinesterase / cholinesterase / cholinesterase / plasma ….
Where [19] appears, read: group: systemic, systemic / in life observation / body weight / body weight gain + systemic / in life observation / food consumption / food efficiency + ….
Setting [20] is: group: offspring, developmental / offspring survival late / lactation index / lactation index.
Where [21] appears, read: group: offspring, systemic / in life observation / body weight / offspring (pup) weight.
The mark [22] stands for this setting: group: parental, systemic / in life observation / body weight / body weight.
[23] abbreviates: group: reproductive, reproductive / offspring survival early / litter size / litter size.
The mark [24] stands for this setting: group: reproductive, reproductive / offspring survival early / litter size / litter size + reproductive / offspring survival early / litter viability other / ….
Setting [25] is: systemic / in life observation / mortality / mortality + systemic / hematology / lymphocyte / lymphocyte + systemic / in life observation / ….
[26] abbreviates: group: cholinesterase, cholinesterase / cholinesterase / cholinesterase / brain cholinesterase (che) + cholinesterase / cholinesterase / cholinesterase / ….
Where [27] appears, read: group: systemic, systemic / in life observation / mortality / mortality.
The mark [28] stands for this setting: group: systemic, systemic / in life observation / mortality / mortality + systemic / clinical chemistry / alanine aminotransferase (alt/sgpt) / alanine ….
Where [29] appears, read: systemic / clinical chemistry / alanine aminotransferase (alt/sgpt) / alanine aminotransferase (alt/sgpt) + systemic / clinical chemistry / ….
Where [30] appears, read: systemic / pathology microscopic / spleen / hemosiderosis + systemic / pathology microscopic / liver / cytoplasmic alteration.
Where [31] appears, read: group: developmental, developmental / developmental malformation / bone / incomplete ossification.
The mark [32] stands for this setting: group: maternal, systemic / in life observation / body weight / body weight gain + systemic / in life observation / food consumption / food consumption.
Setting [33] is: systemic / clinical chemistry / creatinine / creatinine.
Setting [34] is: systemic / clinical chemistry / albumin-globulin ratio / albumin-globulin ratio + systemic / clinical chemistry / glucose / glucose.
Where [35] appears, read: systemic / pathology microscopic / liver / fatty change + systemic / pathology microscopic / liver / granuloma + systemic / pathology ….
Setting [36] is: systemic / in life observation / body weight / body weight + systemic / in life observation / body weight / body weight gain + systemic / in….
[37] abbreviates: group: developmental, developmental / developmental malformation / bone / absent + developmental / developmental malformation / bone / delayed ossification + ….
Setting [38] is: group: maternal, systemic / in life observation / clinical signs / abnormal gait + systemic / in life observation / body weight / body weight + systemic / in….

The structures appear in SMILES notation. Bounds are passed on as bounds.

4 molecules from EPA's ToxRefDB 2 can be followed below.

Broadly, the LOAEL is the lowest dose or exposure tested at which an adverse effect was seen. For orientation: NOAEL means the highest dose or exposure tested at which no adverse effect was seen.

In the data set on mouse [1], `Cc1c(C(=O)O)c(O)cc2c1C(=O)c1c(O)c([C@@H]3O[C@H](CO)[C@@H](O)[C@H](O)[C@H]3O)c(O)c(O)c1C2=O` [Carminic acid] came in with an LEL of 4500 mg/kg/day, an LOAEL above 9000 mg/kg/day, an NEL below 4500 mg/kg/day and an NOAEL of at least 9000 mg/kg/day.
In the data set with mouse [2] (setting [14]), `CCOC(=O)C(O)(c1ccc(Cl)cc1)c1ccc(Cl)cc1` [Chlorobenzilate] returned an LOAEL of 480 mg/kg/day and a no-observed-adverse-effect level (NOAEL) below 480 mg/kg/day. In addition, in the data set with mouse [2] (setting [15]), the LEL is 480 mg/kg/day and the NEL was below 480 mg/kg/day. In the data set with rat [3] (setting [16]), the lowest observed adverse effect level (LOAEL) was 80 mg/kg/day and the no-observed-adverse-effect level (NOAEL) is below 80 mg/kg/day. In the data set with rat [3] (setting [17]), the LEL came to 58.8 mg/kg/day and the NEL was below 58.8 mg/kg/day.
Regarding `COP(=O)(OC)O/C(C)=C/C(=O)N(C)C` [Dicrotophos], the LEL with dog [4] (setting [18]) worked out at 0.1 mg/kg/day; with dog [4] (setting [19]), 0.1 mg/kg/day; in the data set with rat [5] (setting [21]), 0.05 mg/kg/day; in the data set on rat [5] (setting [22]), 0.06 mg/kg/day; with rat [5] (setting [23]), 0.56 mg/kg/day; with mouse [6] (systemic / in life observation / mortality / mortality + systemic / pathology gross / eye / discolored), 1.58 mg/kg/day. The LEL with rat [7] (setting [26]) turned out to be 0.02 mg/kg/day; in the data set with rat [7] (setting [27]), 0.25 mg/kg/day. In addition, the LOAEL is 0.1 mg/kg/day in the data set on dog [4] (setting [18]); 0.1 mg/kg/day with dog [4] (group: systemic, systemic / in life observation / body weight / body weight gain + systemic / in life observation / food consumption / food efficiency); above 2.53 mg/kg/day in the data set on rat [5] (setting [20]); 0.49 mg/kg/day with rat [5] (group: parental, systemic / in life observation / body weight / body weight + systemic / in life observation / food consumption / food efficiency); 0.56 mg/kg/day in the data set on rat [5] (setting [23]); 1.58 mg/kg/day with mouse [6] (systemic / in life observation / mortality / mortality). Besides, the lowest observed adverse effect level (LOAEL) in the data set on rat [7] (setting [26]) is 0.02 mg/kg/day; in the data set on rat [7] (setting [27]), 0.25 mg/kg/day. The NEL with dog [4] (setting [18]) is 0.025 mg/kg/day; in the data set with dog [4] (setting [19]), 0.025 mg/kg/day; in the data set with rat [5] (setting [21]), below 0.05 mg/kg/day; with rat [5] (setting [22]), below 0.06 mg/kg/day; in the data set with rat [5] (setting [24]) it was 0.05 mg/kg/day; with mouse [6] (setting [25]), 0.31 mg/kg/day. Also, the NEL in the data set with rat [7] (setting [26]) is below 0.02 mg/kg/day; in the data set on rat [7] (setting [28]), 0.02 mg/kg/day. Moreover, the NOAEL in the data set with dog [4] (setting [18]) is 0.025 mg/kg/day; with dog [4] (setting [19]), 0.025 mg/kg/day; with rat [5] (setting [20]), at least 2.53 mg/kg/day; in the data set on rat [5] (group: parental, systemic / in life observation / body weight / body weight + systemic / in life observation / food consumption / food efficiency + systemic…) it was 0.05 mg/kg/day; in the data set on rat [5] (setting [24]) it was 0.05 mg/kg/day; in the data set on mouse [6] (setting [25]) it was 0.31 mg/kg/day. The figures for the no observed adverse effect level (NOAEL) in the data set on rat [7] (setting [26]) and in the data set on rat [7] (setting [28]) were below 0.02 mg/kg/day and 0.02 mg/kg/day, respectively.
In the case of `CCC/C(=N\OCC)C1=C(O)CC(CC(C)SCC)CC1=O` (stereo not given) [Sethoxydim], the lowest-observed-adverse-effect level (LOAEL) is 110 mg/kg/day with dog [8] (setting [29]); 137 mg/kg/day with mouse [9]; 400 mg/kg/day with rabbit (setting [31]); 400 mg/kg/day with rabbit (setting [32]); 48 mg/kg/day in the data set with rat [10] (systemic / pathology microscopic / liver / hypertrophy); 41.2 mg/kg/day in the data set on mouse [11] (setting [35]). Besides, the lowest observed adverse effect level (LOAEL) in the data set with rat [12] (setting [36]) came to 196 mg/kg/day; in the data set with rat [13] (setting [37]) it was 650 mg/kg/day; in the data set on rat [13] (group: maternal, systemic / in life observation / clinical signs / abnormal gait) it was 180 mg/kg/day. Besides, the NOAEL with dog [8] (setting [29]) is 17.5 mg/kg/day; with mouse [9], 45.6 mg/kg/day; in the data set with rabbit (setting [31]) it was 160 mg/kg/day; in the data set on rabbit (setting [32]), 160 mg/kg/day; with rat [10] (systemic / pathology microscopic / liver / hypertrophy + systemic / clinical chemistry / alkaline phosphatase (alp/alk) / alkaline …), 12 mg/kg/day; in the data set with mouse [11] (setting [35]) it was 13.8 mg/kg/day. Besides, the NOAEL in the data set on rat [12] (setting [36]) was 60.4 mg/kg/day; in the data set on rat [13] (setting [37]) it was 180 mg/kg/day; in the data set on rat [13] (setting [38]), 50 mg/kg/day. The LEL in the data set on dog [8] (setting [30]) worked out at 8.7 mg/kg/day; in the data set with mouse [9] it was 137 mg/kg/day; with rabbit (setting [31]), 400 mg/kg/day; in the data set with rabbit (setting [32]) it was 400 mg/kg/day; in the data set with rat [10] (setting [33]), 12 mg/kg/day; with mouse [11] (setting [34]), 4.85 mg/kg/day. Also, the LEL turned out to be 60.4 mg/kg/day in the data set with rat [12] (systemic / organ weight / liver / relative to body weight + systemic / pathology microscopic / liver / hypertrophy); 180 mg/kg/day in the data set with rat [13] (group: developmental, developmental / developmental malformation / bone / absent); 650 mg/kg/day with rat [13] (group: maternal, systemic / in life observation / clinical signs / abnormal gait + systemic / in life observation / clinical signs / anogenital staining + …). Further, the NEL in the data set on dog [8] (setting [30]) is below 8.7 mg/kg/day; in the data set with mouse [9], 45.6 mg/kg/day; in the data set on rabbit (setting [31]), 160 mg/kg/day; in the data set on rabbit (setting [32]) it was 160 mg/kg/day; in the data set with rat [10] (setting [33]) it was below 12 mg/kg/day; in the data set on mouse [11] (setting [34]), below 4.85 mg/kg/day. Moreover, the NEL came to 20.1 mg/kg/day in the data set with rat [12] (setting [36]), 50 mg/kg/day in the data set on rat [13] (setting [37]) and 180 mg/kg/day with rat [13] (setting [38]).
